Values joined by “and” are separate entries in the source; they are usually repeats but may differ in a detail not shown here. Identical values can stand only once.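 Briefly, cells in 96-well plates were exposed to five compound concentrations for 48 h, and endpoints were estimated by linear interpolation. At the GI50, growth is halved. TGI: total growth inhibition.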
Assays:
Experiment in all cases: NCI-60 cell line screen, 48 h
SR leukemia = tested on: SR leukemia
LOX IMVI melanoma = tested on: LOX IMVI melanoma
NCI-H226 lung = tested on: NCI-H226 lung
COLO 205 colon = tested on: COLO 205 colon
SW-620 colon = tested on: SW-620 colon
ACHN renal = tested on: ACHN renal
OVCAR-3 ovarian = tested on: OVCAR-3 ovarian
SF-539 CNS = tested on: SF-539 CNS
UACC-257 melanoma = tested on: UACC-257 melanoma
RXF 393 renal = tested on: RXF 393 renal

| SMILES | TGI (SR leukemia) | TGI (LOX IMVI melanoma) | TGI (NCI-H226 lung) | TGI (COLO 205 colon) | TGI (SW-620 colon) | TGI (ACHN renal) | TGI (OVCAR-3 ovarian) | TGI (SF-539 CNS) | TGI (UACC-257 melanoma) | TGI (RXF 393 renal) | GI50 (SR leukemia) | GI50 (ACHN renal) | GI50 (OVCAR-3 ovarian) | GI50 (SF-539 CNS) | GI50 (UACC-257 melanoma) |
| --- | --- | --- | --- | --- | --- | --- | --- | --- | --- | --- | --- | --- | --- | --- | --- |
| O=c1c(-c2ccccc2)c(SCCN2CCOCC2)n(-c2ccccc2)c(=S)n1-c1ccccc1 | > 100 µM | > 100 µM | > 100 µM | > 100 µM | > 100 µM | > 100 µM | > 100 µM | > 100 µM | > 100 µM | > 100 µM |  |  |  |  |  |
| O=C(CSSCC(=O)OCCS(=O)(=O)Nc1ccc(Br)cc1)OCCS(=O)(=O)Nc1ccc(Br)cc1 |  | 42.3 µM |  | 62.2 µM | 44.2 µM | 82.8 µM | 37.6 µM | 32.8 µM | 44.6 µM | 16.8 µM |  |  |  |  |  |
| CCCC[C@H]1C(=O)O[C@H](C)[C@H](NC(=O)c2cccc(NC=O)c2OC)C(=O)O[C@@H](C)[C@@H]1OC(=O)CC(C)C (tested in a mixture with another compound) | 50.5 µM | 23.2 µM | 35 µM | 27.1 µM | 64.3 µM | 41.4 µM | 27.7 µM | 51.9 µM | 38.6 µM | 34.6 µM |  |  |  |  |  |
| O=S(=O)(O)c1ccc2c(N=Nc3ccccc3)c(O)ccc2c1 | > 100 µM | > 100 µM | > 100 µM | > 100 µM | > 100 µM | > 100 µM | > 100 µM | > 100 µM | > 100 µM | > 100 µM |  |  |  |  |  |
| Cc1ccc2c3c1[C@@H]1O[C@@H]1c1cccc(c1-3)[C@@H]1O[C@H]21 | 59.3 µM | 7.38 µM | 84.7 µM | 33.9 µM |  | 31 µM |  |  | 33 µM |  |  |  |  |  |  |
| Cc1cc2c(cc1Cl)SC(c1ccccc1O)NS2(=O)=O (stereo not given) | 77.3 µM | > 100 µM | > 100 µM | 69 µM | 42.5 µM | > 100 µM | 78.4 µM | > 100 µM | > 100 µM | > 100 µM |  |  |  |  |  |
| CCOC(=O)/C(=C\NC(C)(C)CO)c1nc2ccccc2[nH]1 | > 100 µM | > 100 µM |  | > 100 µM | > 100 µM | 97.5 µM | > 100 µM | > 100 µM | > 100 µM | > 100 µM |  |  |  |  |  |
| COc1ccc(N=Nc2c(N)nn(C)c2N)cc1 | > 100 µM | > 100 µM | > 100 µM | > 100 µM | > 100 µM | > 100 µM | > 100 µM | > 100 µM | > 100 µM | > 100 µM |  |  |  |  |  |
| CCOC(=O)C12CC(C)=C(C)CC1CCCc1ccccc12 (stereo not given) | 84.4 µM | 30.8 µM | 56 µM | 33.9 µM | 51.8 µM | 36 µM | 42.6 µM | 85.7 µM | 46.2 µM | 43.1 µM |  |  |  |  |  |
| COc1ccc(N=Cc2ccc(N(CCC#N)S(=O)(=O)c3ccccc3)cc2C)cc1 | > 100 µM |  | > 100 µM | 96.3 µM | > 100 µM | > 100 µM | > 100 µM | > 100 µM | > 100 µM | > 100 µM |  |  |  |  |  |
| COc1ccc2c(c1)CCCc1c-2nc2ccccc2c1N | 6.32 µM | 20.9 µM | 28.4 µM | 3.22 µM | 29 µM | 29 µM | 27.5 µM | 24.8 µM | 9.56 µM | 18.7 µM |  |  |  |  |  |
| N#Cc1c(-c2ccc(Cl)cc2)c2c([nH]c1=O)-c1cc([N+](=O)[O-])ccc1CCC2 | > 100 µM | 37.9 µM | 44.2 µM | 49.7 µM | > 100 µM | > 100 µM | 31.8 µM | 35 µM | 57 µM | 37.6 µM |  |  |  |  |  |
| COC(=O)c1ccc2c(c1)sc1nc(-c3ccc(OC)cc3)cn12 |  | > 100 µM | > 100 µM | > 100 µM | > 100 µM | > 100 µM | > 100 µM | > 100 µM | > 100 µM | > 100 µM |  |  |  |  |  |
| COc1cc(C2C(=O)C(Cl)N2Nc2nc(C)cc(=O)[nH]2)cc(OC)c1OC (stereo not given) | 77.1 µM | 27.5 µM | 62.6 µM |  | > 100 µM | 68.5 µM | 45.1 µM | 35.1 µM | > 100 µM | 26.4 µM |  |  |  |  |  |
| C[C@H]1CCC/C=C/[C@@H]2C[C@H](O)C[C@H]2[C@H](O)/C=C/C(=O)O1 |  | 0.0412 µM and 0.0275 µM | 0.0954 µM and 0.148 µM and 0.0478 µM | < 0.01 µM and 0.0354 µM | 0.0856 µM and 0.118 µM and 0.124 µM | 1.39 µM and 2.36 µM |  |  |  | 0.0481 µM and 0.053 µM and 0.0188 µM | < 14.6 nM and 80.8 nM and 41.5 nM | 35.4 nM and 93.8 nM and 62.6 nM | 38.2 nM | 32.1 nM | 13.2 nM |
| CCCCCCCCCCCCSC(=S)c1c(C)[nH]n(CCCCCCCCCCCC)c1=O | > 100 µM | > 100 µM | > 100 µM | > 100 µM | > 100 µM | > 100 µM | > 100 µM | > 100 µM | > 100 µM |  |  |  |  |  |  |
